In this assay the target is T1, Human PPARδ (Homo sapiens, UniProt Q03181).
T1 construct: The full length human cDNA for PPARγ2 and PPARδ were subcloned into the PGEX-2T and PGEX-KT, respectively, expression vector; made in house; host or cells: E. coli
T1 sequence (Q03181 1-441): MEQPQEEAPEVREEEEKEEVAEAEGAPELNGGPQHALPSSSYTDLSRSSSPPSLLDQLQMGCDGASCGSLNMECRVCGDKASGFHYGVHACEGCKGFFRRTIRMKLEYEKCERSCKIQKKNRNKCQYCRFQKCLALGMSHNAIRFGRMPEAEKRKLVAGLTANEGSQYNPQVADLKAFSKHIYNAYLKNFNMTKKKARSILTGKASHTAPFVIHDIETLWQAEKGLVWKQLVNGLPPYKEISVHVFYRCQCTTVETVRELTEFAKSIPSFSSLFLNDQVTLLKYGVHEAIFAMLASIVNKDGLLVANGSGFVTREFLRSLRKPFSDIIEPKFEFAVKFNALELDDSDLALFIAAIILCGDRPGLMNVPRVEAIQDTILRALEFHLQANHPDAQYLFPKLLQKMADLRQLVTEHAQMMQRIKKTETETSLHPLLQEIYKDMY
Nature of the assay: [3H2]Example 11 displacement assay (PPAR receptor binding assay). On the procedure:
Human PPARγ2 and PPARδ, independently, were prepared as gst-fusion proteins in E. coli. The full length human cDNA for PPARγ2 and PPARδ were subcloned into the PGEX-2T and PGEX-KT, respectively, expression vector (Pharmacia). E. coli containing the plasmid were grown, induced, and then harvested by centrifugation. The resuspended pellet was broken in a French press and debris was removed by centrifugation at 12,000Xg. Receptors were purified from the supernatant by affinity chromatography on glutathione sepharose. After application to the column, and 1 wash, receptor was eluted with glutathione. Glycerol was added to stabilize the receptor and aliquots were frozen at -80 °C for later use.
Assays were incubated for ∼ 16 h at 4 °C in a final volume of 300 µl. Unbound ligand was removed by addition of 200 µl dextran/gelatin-coated charcoal, on ice, for ∼10 minutes. After centrifugation at 3000 rpm for 10 min at 4 °C, 200 µl of the supernatant fraction was counted in a liquid scintillation counter.

For orientation: Kd means the equilibrium constant for the complex coming apart. The molecule `CCCc1c(OCCCSc2ccc(CC(=O)O)cc2Cl)ccc2oc3ccccc3c12` [Example 11, 3-Chloro-4-(1-propyl-dibenzofuranyl-2-oxy-propylthio)-phenylacetic acid] displayed a Kd of 1 nM.

Values taken from EP0904079B1, “ANTIDIABETIC AGENTS” (MERCK & CO., INC., priority 1996, dated 1997).
